From US8242115B2, “Materials and methods to potentiate cancer treatment” (Luitpold Pharmaceuticals, Inc., priority 2000, dated 2012)
Where two headings read alike, the source gives them in different places. Each block holds one molecule with its values, some of them ahead of it.

Columns and labels:
[1] = target: T1, human DNA-PK (Homo sapiens, UniProt P78527); assay: Standard DNA-PK assay (p53 peptide phosphorylation); format: biochemical
T1 construct: The frozen HeLa cell pellet was thawed at 37° C. and immediately centrifuged; endogenous in cells; host or cells: HeLa S3 cells (ATCC CCL-2.2); Endogenous enzyme purified via S100-2 fraction, Q-Sepharose FF and SP-Sepharose FF (fraction IV)
Protocol: Reactions were carried out at room temperature. Reactions were started by addition of ATP and stopped by application to phosphocellulose paper. Reaction products spotted onto phosphocellulose paper were washed five times with a total volume of at least 250 mL 10% acetic acid or 150 mM phosphoric acid. The paper was air dried and radioactivity was determined in a Beckman LS6000IC scintillation counter.

[2] = test system: human colon carcinoma cell line HCT116; assay: cells; format: cell-based; conditions: for GI50: Homo sapiens
Protocol: Cells plated at a density of 5,000 to 20,000 per well in 96-well microtiter plates were grown in RMPI 1640 containing 10% FBS, 100 U/mL penicillin and 100 μg/mL streptomycin, for 18 h at 37° C. in a humidified incubator with 5% CO2. Cells tested included ACHN, 786-0, HCT-116, SW620, SK-MEL-5, SK-MEL-28, A549, H322, OVCAR-3, SK-OV-3, MCF-7, MDA-MB-231, MOLT4, HL60, SNB-19, PC-3. Cells were treated with media containing chemotherapeutic drugs alone or with media containing chemotherapeutic drugs and a DNA-PK inhibitor of the invention, 1-(2-hydroxy-4-morpholin-4-yl-phenyl)-ethanone. Cells were incubated for two days before growth was measured using a tetrazolium dye assay (MTS). Chemotherapeutic drugs included bleomycin etoposide, vinblastine, doxorubicin, paclitaxel, cisplatin, chlorambucil, cyclophosphamide, 5-fluorouracil, cytosine-arabinoside, 6-mercaptoguanine and methotrexate (all purchased from Sigma). The drug concentration necessary to inhibit cell growth to 50% of untreated control cells was defined as the GI50.

[3] = test system: Colon carcinoma cells (HCT116)
[4] = test system: thymocytes from BALB/c and BALB/c p53-/p53- mice; HL60, Jurkat, JY, B16/F10, WS1; assay: Cell viability, trypan blue exclusion assay; format: cell-based, human and mouse; conditions: up to 32 μM (thymocytes), up to 25 μM (cell lines), several days
Protocol: Cell viability was also tested during drug treatment using the trypan blue exclusion assay. […] Cultured cells were incubated in the presence of varying concentrations of 2-hydroxy-4-morpholin-4-yl-benzaldehyde up to 32 μM. Cultured human and mouse cell lines were incubated in RPMI 1640 media containing 10% FBS, 100 U/mL penicillin and 100 μg/mL streptomycin at 37° C. with 5% CO2 in a humidified incubator with 2-hydroxy-4-morpholin-4-yl-benzaldehyde for several days. Tumor cell lines, HL60, Jurkat, JY and B16/F10 and the normal cell line WS1 were tested using this assay when incubated at drug concentrations up to 25 μM.

[5] = test system: DR3 cells (cultured mouse B-lymphocytes); assay: V(D)J recombination assay; format: cell-based; conditions: 50 μM
Protocol: Recombination assays were performed as previously described (Leu et al., Mol. Cell. Biol 15:5657-5670 (1995)). […] Cells were concentrated and washed in HBS (containing 30 mM HEPES-KOH, pH 7.5, 140 mM NaCl, and 5 mM KCl) and resuspended in HBS at a density of 2.0×10^8 cells/mL. Cells (1.0×10^7) were transiently transfected by electroporation with 10 μg of the recombination substrate pJH200 (Leu et al., Mol. Cell. Biol. 15:5657-5670 (1995)) and transferred to a 90 mm cell culture dish containing 8 mL media with or without 2-hydroxy-4-morpholin-4-yl-benzaldehyde as described above. After 2 days, cells were removed from the dish with a rubber policeman, concentrated, washed one time with PBS, and resuspended in 0.1 mL lysis buffer (0.3% Triton X-100, 50 mM Tris-HCl, pH 7.5, 50 mM EDTA). Following a five min incubation at room temperature, cellular debris was removed by centrifugation at 12,000 rpm for two min in a microfuge. The supernatant was extracted sequentially with phenol and chloroform/[…] (24:1), after which, one tenth volume 3 M sodium acetate and 2 volumes cold 100% ethanol were added to the aqueous phase. Precipitated nucleic acid was collected by centrifugation at 12,000 rpm for 15 min and suspended in 25 μL water. An aliquot of the material was used to transform DH5α cells by electroporation. […]

[6] = test system: HCT116 cells (human colon carcinoma) xenograft tumors; assay: Animal tumor model, drug plus γ-radiation; format: in vivo, athymic BALB/c (nu/nu) mice; conditions: average tumor burden 500 mg; drug and 300 rad once daily for two days
Protocol: HCT116 cells (human colon carcinoma) were used to propagate xenograft tumors in 6-8 week old female athymic BALB/c (nu/nu) mice. Mice were maintained in a laminar airflow cabinet under pathogen-free conditions and fed sterile food and water ad libitum. HCT116 cells were grown to subconfluence in McCoy's media supplemented with 10% FBS, 100 U/mL penicillin, 100 μg/mL streptomycin, and 1.5 mM L-glutamine in a 5% CO2 humidified environment. Single cell suspensions were prepared in CMF-PBS (0.9 mM KCl, 2.7 mM KH2PO4, 13.8 mM NaCl, pH 7.5), and cell concentration adjusted to 4×10^7 cells/mL. Mice were inoculated subcutaneously (s.c.) on the right flank or right leg with a total of 4×10^6 cells (100 μL).
Mice were randomized (5 mice/group) into four treatment groups and used when tumors reached a weight of 75 to 100 mg (usually 7 to 11 days post-inoculation). Tumors were measured with vernier calipers and tumor weights were estimated using the empirically-derived formula below. Tumor weight(mg)=tumor length(mm)×tumor width(mm)^2/3.3. […] Tumor size was monitored every other day for the duration of the experiment.

[7] = Pharmacokinetic analysis after subcutaneous administration; format: in vivo, mice
[8] = test system: cultured human tumor cell lines (Table 4) and normal human fibroblast cell line MRC5; assay: Cellular toxicity, MTS dye metabolism assay; conditions: 200 μM continuously for 48 h
[9] = read-out: IC50 (nM) DNA-PK Assay
[10] = with 1-(2-hydroxy-4-morpholin-4-yl-phenyl)-ethanone

Molecule: COc1cc([C@@H]2c3cc4c(cc3[C@@H](O[C@@H]3O[C@@H]5CO[C@@H](C)O[C@H]5[C@H](O)[C@H]3O)[C@H]3COC(=O)[C@H]23)OCO4)cc(OC)c1O [etoposide, reference compound]
- GI50 ([2]; HCT-116, with 1-(2-hydroxy-4-morpholin-4-yl-phenyl)-ethanone, read-out: GI50, in the presence of DNA-PK inhibitor): 14000 nM
- GI50 ([2]; HCT-116, without DNA-PK inhibitor, read-out: GI50, chemotherapeutic drug alone): 120000 nM
- LD50 of etoposide without DNA-PK inhibitor ([3]; 24 h etoposide): 1.1 µM
- LD90 of etoposide without DNA-PK inhibitor ([3]; 24 h etoposide): 2.9 µM
- LD50 of etoposide with DNA-PK inhibitor [3, 10]: 0.075 µM
- LD90 of etoposide with DNA-PK inhibitor [3, 10]: 0.9 µM

Molecule: bleomycin
- GI50, in the presence of DNA-PK inhibitor ([2]; 100 μM 1-(2-hydroxy-4-morpholin-4-yl-phenyl)-ethanone): 3×10^−2 units/mL
- GI50, chemotherapeutic drug alone ([2]; without DNA-PK inhibitor): 2×10^−1 units/mL

Molecule: Nc1cc(N2CCNCC2)ccc1[N+](=O)[O-] [Example 20, 2-Nitro-5-piperazin-1-yl-phenylamine]
- IC50 [1, 9]: 10000 nM

Molecule: C[C@@]12c3ccc4c(c3C(=O)c3occ(c31)C(=O)C[C@H]2O)CCC4=O [demethoxyviridin, reference compound]
- IC50 ([1]; standard kinase reaction, read-out: IC50, enzyme activity inhibited): 5 nM

Molecule: COC(=O)c1cc(N2CCOCC2)ccc1O [Example 47, 2-Hydroxy-5-morpholin-4-yl-benzoic Acid Methyl Ester]
- IC50 [1, 9]: 40000 nM

Molecule: COc1cc(N2CCOCC2)ccc1C=O [Example 46 A, 2-Methoxy-4-morpholin-4-yl-benzaldehyde]
- IC50 [1, 9]: 10000 nM

Molecule: O=C(O)C(F)(F)F.O=C(O)c1ccc(CN2CCOCC2)cc1O [Example 52, 2-Hydroxy-4-morpholin-4-ylmethyl-benzoic Acid Trifluoroacetate]
- melting point: 138 to 146 °C

Molecule: O=C(O)CCCc1ccc(N(CCCl)CCCl)cc1 [chlorambucil]
- GI50 ([2]; HCT-116, read-out: GI50, chemotherapeutic drug alone): 120000 nM
- GI50 ([2]; HCT-116, read-out: GI50, in the presence of DNA-PK inhibitor): 14000 nM

Molecule: CC(=O)c1ccc(N2CCOCC2)c(Cl)c1O [Example 42 B, 1-(3-Chloro-2-hydroxy-4-morpholin-4-yl-phenyl)-ethanone]
- IC50 [1, 9]: 14000 nM

The next lines start with results.

- IC50 [1, 9]: 120 nM
Molecule: CCC(=O)c1ccc(N2CCOCC2)cc1O [Example 35, 1-(2-Hydroxy-4-morpholin-4-yl-phenyl)-propan-1-one]

- IC50 [1, 9]: 1000 nM
Molecule: Nc1cc(NN2CCOCC2)ccc1[N+](=O)[O-] [Example 16, N^1-Morpholin-4-yl-4-nitrobenzene-1,3-diamine]

- IC50 [1, 9]: 150 nM
Molecule: CC(C)CC(=O)c1ccc(N2CCOCC2)cc1O [Example 36, 1-(2-Hydroxy-4-morpholin-4-yl-phenyl)-3-methyl-butan-1-one]

- IC50 [1, 9]: 1500 nM
Molecule: CC(=O)c1cc(F)c(N2CCOCC2)cc1O [Example 43 C, 1-(5-Fluoro-2-hydroxy-4-morpholin-4-yl-phenyl)-ethanone]

- IC50 [1, 9]: 250 nM
Molecule: O=C(c1ccc(N2CCOCC2)cc1O)C(F)(F)F [Example 38, 2,2,2-Trifluoro-1-(2-hydroxy-4-morpholin-4-yl-phenyl)-ethanone]

- IC50 [1, 9]: 500 nM
Molecule: O=C(O)c1ccc(N2CCOCC2)cc1O [Example 29, 2-Hydroxy-4-morpholin-4-yl-benzoic Acid]

- IC50 [1, 9]: 2000 nM
Molecule: O=[N+]([O-])c1ccc(N2CCOCC2)cc1O [Example 33, 5-Morpholin-4-yl-2-nitro-phenol]

- IC50 [1, 9]: 1000 nM
Molecule: O/N=C/c1ccc(N2CCOCC2)cc1O [Example 48, 2-((Hydroxyimino)methyl)-5-morpholin-4-yl-phenol]

- IC50 [1, 9]: 500 nM
Molecule: COC(=O)c1ccc(N2CCOCC2)cc1O [Example 30, 2-Hydroxy-4-morpholin-4-yl-benzoic Acid Methyl Ester]

- IC50 [1, 9]: 120 nM
Molecule: O=C(c1ccccc1)c1ccc(N2CCOCC2)cc1O [Example 37, 1-(2-Hydroxy-4-morpholin-4-yl-phenyl)-1-phenyl-methanone]

- IC50 [1, 9]: 400 nM
- duration of high plasma concentration [7]: remained high for about one hour
Molecule: O=Cc1ccc(N2CCOCC2)cc1O [Example 32, 2-Hydroxy-4-morpholin-4-yl-benzaldehyde]
- cells sensitive to killing, trypan blue exclusion method [4]: In no instances were cells sensitive to killing
- DNA rearrangement (V(D)J recombination) inhibited [5]: 8 fold
- tumors shrank [6]: greater than 10 fold
- sensitivity of HCT116 to killing by γ-radiation ([3]; 200 μM): increased the sensitivity
- killing of cell lines, MTS dye metabolism assay [8]: no evidence of killing

- IC50 [1, 9]: 1000 nM
Molecule: N/N=C/c1ccc(N2CCOCC2)cc1O [Example 49, 2-Hydrazonomethyl-5-morpholin-4-yl-phenol]

- IC50 [1, 9]: 240 nM
Molecule: CC(=O)c1ccc(N2CCOCC2)c(F)c1O [Example 43 D, 1-(3-Fluoro-2-hydroxy-4-morpholin-4-yl-phenyl)-ethanone]
